Values after ≈ are worked out from the molar mass of the structure shown. Positions of bridges follow the written chain, without caps; N, C: chain ends. Non-standard residues stand in square brackets, D forms with d. Residues, ends and D or L forms follow the SMILES beside them. Phe(4-CF3) = N[C@@H](Cc1ccc(C(F)(F)F)cc1)C(=O)O; PEG4 = NCCOCCOCCOCCOCCC(=O)O; S5 = C=CCCC[C@](C)(N)C(=O)O; PEG3 = NCCOCCOCCOCCC(=O)O; Dab = NCC[C@H](N)C(=O)O; Dap = NC[C@H](N)C(=O)O
Columns and labels:
[1] = tested on: P. aeruginosa; assay type: cell-based, Pseudomonas aeruginosa
Outline: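 Broth microdilution adapted from CLSI in MHB or cation-adjusted MHB; log-phase P. aeruginosa at 5×10^5 CFU/ml final with serially diluted stapled peptides. Incubated 20-24 h at 37 °C; MIC is the lowest concentration without visible growth.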

[2] = in vitro; assay type: cell-based; settings: human
Outline: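 RPTEC or HepG2 cells plated overnight, given fresh media, then serial StAMP dilutions (from 5 mg/mL water stock) or vehicle at 37 °C. Cytotoxicity read as LDH release into media, absorbance 490 nm; renal toxicity after 90 min, liver toxicity after 48 h incubation.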

[3] = tested on: A. baumannii; assay type: cell-based, Acinetobacter baumannii
Outline: (§1)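 StAMP peptides were tested by CLSI-adapted broth microdilution in MHB or cation-adjusted MHB II, final inoculum 5×10^5 CFU/ml from log-phase cultures. After 20-24 h at 37° C, MIC was taken as the lowest peptide concentration without visible growth.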

[4] = tested on: S. aureus; assay type: cell-based, Staphylococcus aureus
Outline: as §1

[5] = tested on: K. pneumoniae; assay type: cell-based, Klebsiella pneumoniae
Outline: as §1

[6] = in vitro; assay type: cell-based; settings: human, Inhibitory Concentration at 50% Cytotoxicity (IC50) Human Liver Cells (HepG2)
Outline: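 HepG2 cells in EMEM with 10% FBS, allowed 4 h to attach, then exposed to serial dilutions of StAMPs (from a 5 mg/mL water stock) or vehicle. After 48 h at 37 °C, viability read by CellTiter-Glo luminescence.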

[7] = tested on: E. coli; assay type: cell-based, Escherichia coli
Outline: as §1

Row | Structure (SMILES) | Minimum Inhibitory Concentration (MIC) P. aeruginosa [1] [µg/mL] | IC50 at 90 min [2] [µg/mL] | Minimum Inhibitory Concentration (MIC) A. baumannii [3] [µg/mL] | Minimum Inhibitory Concentration (MIC) S. aureus [4] [µg/mL] | Minimum Inhibitory Concentration (MIC) K. pneumoniae [5] [µg/mL] | Minimum Inhibitory Concentration (MIC) E. coli [7] [µg/mL] | IC50 at 48 hours [6] [µg/mL]
1 | CC(C)[C@@H]1NC(=O)[C@@](C)(NC(=O)[C@H](C)NC(=O)[C@H](CCN)NC(=O)CNC(=O)[C@H](Cc2ccccc2)NC(=O)[C@H](CCN)NC(=O)[C@H](CCN)NC(=O)[C@H](CCN)NC(=O)[C@H](CCN)NC(=O)[C@H](CCN)NC(=O)[C@]2(C)CCCC=CCCC[C@](C)(NC(=O)CN)C(=O)NCC(=O)N[C@@H](CCN)C(=O)N[C@@H](Cc3ccccc3)C(=O)N2)CCCC=CCCC[C@@](C)(C(=O)N[C@@H](C)C(=O)N[C@@H](CCN)C(=O)N[C@@H](CCN)C(N)=O)NC(=O)[C@H](CCC(=O)O)NC(=O)CNC1=O [compound 23] (H-G[S5]G[Dab]F[S5][Dab][Dab][Dab][Dab][Dab]FG[Dab]A[S5]VGE[S5]A[Dab][Dab]-NH2; staple 2-6, 16-20) | 2 | 84 (≈ 36.3 µM) | 8 | 64 | 32 | 8 | 39 (≈ 16.9 µM)
2 | CC(C)[C@@H]1NC(=O)[C@@](C)(NC(=O)[C@H](C)NC(=O)[C@H](CN)NC(=O)CNC(=O)[C@H](Cc2ccccc2)NC(=O)[C@H](CN)NC(=O)[C@H](CN)NC(=O)[C@H](CN)NC(=O)[C@H](CN)NC(=O)[C@H](CN)NC(=O)[C@]2(C)CCCC=CCCC[C@](C)(NC(=O)CN)C(=O)NCC(=O)N[C@@H](CN)C(=O)N[C@@H](Cc3ccccc3)C(=O)N2)CCCC=CCCC[C@@](C)(C(=O)N[C@@H](C)C(=O)N[C@@H](CCCCN)C(=O)N[C@@H](CCCCN)C(N)=O)NC(=O)[C@H](CCC(=O)O)NC(=O)CNC1=O [compound 78] (H-G[S5]G[Dap]F[S5][Dap][Dap][Dap][Dap][Dap]FG[Dap]A[S5]VGE[S5]AKK-NH2; staple 2-6, 16-20) | 2 | > 200 | 8 | >64 | 16 | 16 | > 200
3 | CC(C)[C@@H]1NC(=O)[C@@](C)(NC(=O)[C@H](C)NC(=O)[C@H](CCCCN)NC(=O)CNC(=O)[C@H](Cc2ccccc2)NC(=O)[C@H](CCCCN)NC(=O)[C@H](CCCCN)NC(=O)[C@H](CCCCN)NC(=O)[C@H](CO)NC(=O)[C@H](Cc2c[nH]cn2)NC(=O)[C@]2(C)CCCC=CCCC[C@](C)(NC(=O)CN)C(=O)NCC(=O)N[C@@H](CCCCN)C(=O)N[C@@H](Cc3ccccc3)C(=O)N2)CCCC=CCCC[C@@](C)(C(=O)N[C@@H](C)C(=O)N[C@@H](CCCCN)C(=O)N[C@@H](Cc2c[nH]c3ccccc23)C(N)=O)NC(=O)[C@H](CCC(=O)O)NC(=O)CNC1=O [compound 67] (H-G[S5]GKF[S5]HSKKKFGKA[S5]VGE[S5]AKW-NH2; staple 2-6, 16-20) | 16 | 27 (≈ 10.4 µM) | 4 | 16 | 8 | 4 | 52 (≈ 20.1 µM)

Continued, in another order:

Row | Minimum Inhibitory Concentration (MIC) P. aeruginosa [1] [µg/mL] | IC50 at 90 min [2] [µg/mL] | Minimum Inhibitory Concentration (MIC) A. baumannii [3] [µg/mL] | Minimum Inhibitory Concentration (MIC) S. aureus [4] [µg/mL] | Minimum Inhibitory Concentration (MIC) K. pneumoniae [5] [µg/mL] | Minimum Inhibitory Concentration (MIC) E. coli [7] [µg/mL] | Structure (SMILES) | IC50 at 48 hours [6] [µg/mL]
4 | 4 | > 200 | 2 | >64 | 4 | 2 | CC(C)[C@@H]1NC(=O)[C@@](C)(NC(=O)[C@H](C)NC(=O)[C@H](CCCCN)NC(=O)CNC(=O)[C@H](Cc2ccccc2)NC(=O)[C@H](CCCCN)NC(=O)[C@H](CCCCN)NC(=O)[C@H](CCCCN)NC(=O)[C@H](CCCCN)NC(=O)[C@H](CCCCN)NC(=O)[C@]2(C)CCCC=CCCC[C@](C)(NC(=O)CN)C(=O)NCC(=O)N[C@@H](CCCCN)C(=O)N[C@@H](Cc3ccccc3)C(=O)N2)CCCC=CCCC[C@@](C)(C(=O)N[C@@H](C)C(=O)N[C@@H](CCCCN)C(=O)N[C@@H](CCCCN)C(=O)NCCOCCOCCOCCOCCC(N)=O)NC(=O)[C@H](CCC(=O)O)NC(=O)CNC1=O [compound 74] (H-G[S5]GKF[S5]KKKKKFGKA[S5]VGE[S5]AKK[PEG4]-NH2; staple 2-6, 16-20) | 430 (≈ 153 µM)
5 | 4 | 671 (≈ 242 µM) | 2 | >64 | 4 | 2 | CC(C)[C@@H]1NC(=O)[C@@](C)(NC(=O)[C@H](C)NC(=O)[C@H](CCCCN)NC(=O)CNC(=O)[C@H](Cc2ccccc2)NC(=O)[C@H](CCCCN)NC(=O)[C@H](CCCCN)NC(=O)[C@H](CCCCN)NC(=O)[C@H](CCCCN)NC(=O)[C@H](CCCCN)NC(=O)[C@]2(C)CCCC=CCCC[C@](C)(NC(=O)CN)C(=O)NCC(=O)N[C@@H](CCCCN)C(=O)N[C@@H](Cc3ccccc3)C(=O)N2)CCCC=CCCC[C@@](C)(C(=O)N[C@@H](C)C(=O)N[C@@H](CCCCN)C(=O)N[C@@H](CCCCN)C(=O)NCCOCCOCCOCCC(N)=O)NC(=O)[C@H](CCC(=O)O)NC(=O)CNC1=O [compound 73] (H-G[S5]GKF[S5]KKKKKFGKA[S5]VGE[S5]AKK[PEG3]-NH2; staple 2-6, 16-20) | 407 (≈ 147 µM)
6 | 4 | > 200 | 4 | >64 | 16 | 4 | CC(C)[C@@H]1NC(=O)[C@@](C)(NC(=O)[C@H](C)NC(=O)[C@H](CCCCN)NC(=O)CNC(=O)[C@H](Cc2ccccc2)NC(=O)[C@H](CCCCN)NC(=O)[C@H](CCCCN)NC(=O)[C@H](CCCCN)NC(=O)[C@H](CCCCN)NC(=O)[C@H](Cc2c[nH]cn2)NC(=O)[C@]2(C)CCCC=CCCC[C@](C)(NC(=O)CN)C(=O)NCC(=O)N[C@@H](CCCCN)C(=O)N[C@@H](Cc3ccccc3)C(=O)N2)CCCC=CCCC[C@@](C)(C(=O)N[C@@H](C)C(=O)N[C@@H](CCCCN)C(=O)N[C@@H](CCCCN)C(N)=O)NC(=O)[C@H](CCC(=O)O)NC(=O)CNC1=O [compound 3] (H-G[S5]GKF[S5]HKKKKFGKA[S5]VGE[S5]AKK-NH2; staple 2-6, 16-20) | > 200
7 | 2 | ~200 (≈ 67.4 µM) | 2 | 64 | 2 | 2 | CC(C)[C@@H]1NC(=O)[C@@](C)(NC(=O)[C@H](C)NC(=O)[C@H](CCCCN)NC(=O)CNC(=O)[C@H](Cc2ccccc2)NC(=O)[C@H](CCCCN)NC(=O)[C@H](CCCCN)NC(=O)[C@H](CCCCN)NC(=O)[C@H](CCCCN)NC(=O)[C@H](CCCCN)NC(=O)[C@]2(C)CCCC=CCCC[C@](C)(NC(=O)CN)C(=O)NCC(=O)N[C@@H](CCCCN)C(=O)N[C@@H](Cc3ccccc3)C(=O)N2)CCCC=CCCC[C@@](C)(C(=O)N[C@@H](C)C(=O)N[C@@H](CCCCN)C(=O)N[C@@H](CCCCN)C(=O)NCC(=O)NCC(=O)N[C@@H](CCC(=O)O)C(N)=O)NC(=O)[C@H](CCC(=O)O)NC(=O)[C@H](Cc2ccc(C(F)(F)F)cc2)NC1=O [compound 35] (H-G[S5]GKF[S5]KKKKKFGKA[S5]V[Phe(4-CF3)]E[S5]AKKGGE-NH2; staple 2-6, 16-20) | > 200

Source: US20240174723A1, “STAPLED ANTIMICROBIAL PEPTIDES (STAMPS) AND USES THEREOF” (Lytica Therapeutics, Inc., priority 2021, published 2024)
